Here are results for 28 compounds from patent US10758534B2 (Vertex Pharmaceuticals Incorporated, priority 2014, dated 2020).

The target in this experiment is T1, F508del (Homo sapiens, UniProt P13569, DEL508-508).
T1 construct: expressed in transfected cells
Briefly: Protocol 1: membrane potential optical assay (FLIPR III, voltage sensing dye), identification of potentiator compounds. Particulars: Table 3, compounds of Table 1. It counts as cell-based. In a few lines:
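Read-out: change in voltage-sensing dye fluorescence (FLIPR III) as a measure of F508del conductance. Temperature-corrected (27° C, 24 hrs) NIH 3T3 cells expressing F508del are pretreated with potentiators, dye-loaded, then stimulated with forskolin under a chloride ion gradient using chloride-free gluconate bath.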

T1 sequence (P13569 with tags, fused parts or gaps DEL508-508): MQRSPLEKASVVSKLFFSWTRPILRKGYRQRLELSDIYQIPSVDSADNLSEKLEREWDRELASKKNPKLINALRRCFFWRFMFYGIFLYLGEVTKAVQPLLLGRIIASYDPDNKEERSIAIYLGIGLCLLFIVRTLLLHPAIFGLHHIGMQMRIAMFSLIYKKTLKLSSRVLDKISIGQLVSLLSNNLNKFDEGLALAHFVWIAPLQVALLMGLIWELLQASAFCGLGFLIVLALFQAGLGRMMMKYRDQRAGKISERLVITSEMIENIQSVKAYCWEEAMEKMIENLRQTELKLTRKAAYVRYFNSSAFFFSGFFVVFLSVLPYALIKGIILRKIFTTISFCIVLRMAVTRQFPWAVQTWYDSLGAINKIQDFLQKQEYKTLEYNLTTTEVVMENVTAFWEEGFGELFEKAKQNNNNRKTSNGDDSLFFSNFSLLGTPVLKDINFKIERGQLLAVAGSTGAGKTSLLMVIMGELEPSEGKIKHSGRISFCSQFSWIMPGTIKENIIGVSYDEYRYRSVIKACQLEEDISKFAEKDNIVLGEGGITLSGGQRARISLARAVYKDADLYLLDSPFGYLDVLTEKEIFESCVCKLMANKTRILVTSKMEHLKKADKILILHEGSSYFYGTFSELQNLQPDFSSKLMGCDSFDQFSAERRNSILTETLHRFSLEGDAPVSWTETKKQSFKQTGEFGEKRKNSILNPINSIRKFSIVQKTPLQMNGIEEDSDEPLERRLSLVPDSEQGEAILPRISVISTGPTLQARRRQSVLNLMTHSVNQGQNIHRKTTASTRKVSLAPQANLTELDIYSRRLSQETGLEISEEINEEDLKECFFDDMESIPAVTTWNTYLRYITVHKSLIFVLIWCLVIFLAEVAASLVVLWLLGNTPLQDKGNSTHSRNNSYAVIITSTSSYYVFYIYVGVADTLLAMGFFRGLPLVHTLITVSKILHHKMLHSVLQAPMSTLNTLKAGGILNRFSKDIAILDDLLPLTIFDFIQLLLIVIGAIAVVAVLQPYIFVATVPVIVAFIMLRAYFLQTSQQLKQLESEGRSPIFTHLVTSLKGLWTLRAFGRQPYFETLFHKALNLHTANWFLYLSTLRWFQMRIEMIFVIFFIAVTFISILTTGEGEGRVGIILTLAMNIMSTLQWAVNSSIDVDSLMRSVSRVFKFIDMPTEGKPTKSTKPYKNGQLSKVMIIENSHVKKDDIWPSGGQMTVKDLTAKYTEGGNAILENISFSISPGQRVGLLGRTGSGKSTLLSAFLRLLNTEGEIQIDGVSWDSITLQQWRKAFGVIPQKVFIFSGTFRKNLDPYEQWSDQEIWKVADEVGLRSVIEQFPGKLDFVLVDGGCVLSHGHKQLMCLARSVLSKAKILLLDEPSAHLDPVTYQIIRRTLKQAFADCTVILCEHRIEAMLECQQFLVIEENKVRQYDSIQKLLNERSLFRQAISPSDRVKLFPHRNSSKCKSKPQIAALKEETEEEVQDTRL

For the compound `COc1ccc(-c2ccc(C(=O)NS(=O)(=O)c3ccc[nH]c3=O)c(N3C[C@@H](C)CC3(C)C)n2)c(F)c1` [Compound 1858, 6-(2-fluoro-4-methoxy-phenyl)-N-[(2-oxo-1H-pyridin-3-yl)sulfonyl]-2-[(4S)-2,2,4-trimethylpyrrolidin-1-yl]pyridine-3-carboxamide], the EC30 entry is “++ (“++” means between 3 uM and 10 uM)”. The result for `[2H]C([2H])([2H])C([2H])(COc1ccn(-c2ccc(C(=O)NS(=O)(=O)c3cccnc3N)c(N3C[C@@H](C)CC3(C)C)n2)n1)C([2H])([2H])[2H]` [Compound 1887, N-[(2-amino-3-pyridyl)sulfonyl]-6-[3-[2,3,3,3-tetradeuterio-2-(trideuteriomethyl)propoxy]pyrazol-1-yl]-2-[(4S)-2,2,4-trimethylpyrrolidin-1-yl]pyridine-3-carboxamide] reads “+++ (“+++” means <3 uM)”; that for `COCC1CCN(c2nc(-c3cc(F)cc(OCC(C)C)c3)ccc2C(=O)NS(=O)(=O)c2ccn[nH]2)CC1` [Compound 975, 6-(3-fluoro-5-isobutoxy-phenyl)-2-[4-(methoxymethyl)-1-piperidyl]-N-(1H-pyrazol-5-ylsulfony)pyridine-3-carboxamide], “++ (“++” means between 3 uM and 10 uM)”; that for `Cc1ccc(-c2ccc(C(=O)NS(=O)(=O)c3cccc(N)n3)c(N3CCC(C)CC3)n2)cc1` [Compound 802, N-[(6-amino-2-pyridyl)sulfonyl]-2-(4-methyl-1-piperidyl)-6-(p-tolyl)pyridine-3-carboxamide], “+++ (“+++” means <3 uM)”.

On to `COc1ncccc1-c1ccc(C(=O)NS(=O)(=O)c2cccnc2N)c(N2C[C@@H](C)CC2(C)C)n1` [Compound 1980, N-[(2-amino-3-pyridyl)sulfonyl]-6-(2-methoxy-3-pyridyl)-2-[(4S)-2,2,4-trimethylpyrrolidin-1-yl]pyridine-3-carboxamide], for which the EC30 result was “+++ (“+++” means <3 uM)”. Consider `CC1CN(c2ncccc2C(=O)NS(=O)(=O)c2cccc(N3CCCC(c4ccccc4)C3)n2)C(C)(C)C1` (stereo not shown) [Compound 1755, N—[[6-(3-phenyl-1-piperidyl)-2-pyridyl]sulfonyl]-2-(2,2,4-trimethylpyrrolidin-1-yl)pyridine-3-carboxamide], for which the EC30 result was “++ (“++” means between 3 uM and 10 uM)”.

`CCCN(C)c1cccc(S(=O)(=O)NC(=O)c2cccnc2N2CC(C)CC2(C)C)n1` (stereo not shown) [Compound 1711, N—[[6-[methyl(propyl)amino]-2-pyridyl]sulfonyl]-2-(2,2,4-trimethylpyrrolidin-1-yl)pyridine-3-carboxamide]: the EC30 result is “+++ (“+++” means <3 uM)”. Take `CCOc1cccc2c1CN(Cc1c(C)cc(C)cc1C)C2(C)C(=O)NS(=O)(=O)c1ccc(N)cc1` (stereo not shown) [Compound 1480, N-(4-aminophenyl)sulfonyl-4-ethoxy-1-methyl-2-[(2,4,6-trimethylphenyl)methyl]isoindoline-1-carboxamide]: the EC30 entry is “+++ (“+++” means <3 uM)”. The result for `CC1CN(c2ncccc2C(=O)NS(=O)(=O)c2cccc(Oc3ccc(Cl)cc3Cl)n2)C(C)(C)C1` (stereo not shown) [Compound 1806, N—[[6-(2,4-dichlorophenoxy)-2-pyridyl]sulfnyl]-2-(2,2,4-trimethylpyrrolidin-1-yl)pyridine-3-carboxamide] reads “+++ (“+++” means <3 uM)”; that for `CCOc1cccc2c1CN(Cc1c(C)cc(C)cc1C)C2(C)C(=O)NS(=O)(=O)c1nccs1` (stereo not shown) [Compound 1546, 4-ethoxy-1-methyl-N-thiazol-2-ylsulfonyl-2-[(2,4,6-trimethylphenyl)methyl]isoindoline-1-carboxamide], “+++ (“+++” means <3 uM)”; that for `CC(C)Oc1ccc(-c2ccc(C(=O)NS(=O)(=O)c3cccc(N)n3)c(N3C[C@@H](C)C[C@H](C)C3)n2)cn1` [Compound 1136, N-[(6-amino-2-pyridyl)sulfonyl]-2-[(3S,5S)-3,5-dimethyl-1-piperidyl]-6-(6-isopropoxy-3-pyridyl)pyridine-3-carboxamide], “+++ (“+++” means <3 uM)”. The result for `CNc1cccc(S(=O)(=O)NC(=O)c2ccc(-c3ccccc3)nc2Oc2c(C)cc(C)cc2C)n1` [Compound 1032, N-[[6-(methylamino)-2-pyridyl]sulfonyl]-6-phenyl-2-(2,4,6-trimethylphenoxy)pyridine-3-carboxamide] reads “+++ (“+++” means <3 uM)”; that for `CC(C)COc1cc(F)cc(-c2ccc(C(=O)NS(=O)(=O)c3cccc(N)n3)c(N3C[C@H]4CC[C@@H]3C4)n2)c1` [Compound 924, N-[(6-amino-2-pyridyl)sulfonyl]-2-[(1S,4R)-3-azabicyclo[2.2.1]heptan-3-yl]-6-(3-fluoro-5-isobutoxy-phenyl)pyridine-3-carboxamide], “+++ (“+++” means <3 uM)”; that for `Cc1cccc(C)c1Cn1nc(-c2ccc3c(c2)OCOC3)cc1C(=O)NS(=O)(=O)c1ccccc1` [Compound 1621, N-(benzenesulfonyl)-5-(4H-1,3-benzodioxin-7-yl)-2-[(2,6-dimethylphenyl)methyl]pyrazole-3-carboxamide], “+++ (“+++” means <3 uM)”. As to `Cc1cc(C)c(Oc2nc(C(C)(C)C)ccc2C(=O)NS(=O)(=O)c2nccnc2N)c(C)c1` [Compound 1208, N-(3-aminopyrazin-2-yl) sulfonyl-6-tert-butyl-2-(2,4,6-trimethylphenoxy)pyridine-3-carboxamide], the EC30 entry was “+++ (“+++” means <3 uM)”. `C[C@@H]1CN(c2nc(-c3cccc(Cl)c3)ccc2C(=O)NS(=O)(=O)c2ccc[nH]c2=O)C(C)(C)C1` [Compound 1791, 6-(3-chlorophenyl)-N-[(2-oxo-1H-pyridin-3-yl)sulfonyl]-2-[(4S)-2,2,4-trimethylpyrrolidin-1-yl]pyridine-3-carboxamide]: the EC30 result was “+++ (“+++” means <3 uM)”. The result for `Cc1cccc(C)c1Cn1nc(C(C)(C)C)cc1C(=O)NS(=O)(=O)c1cccc2cc[nH]c12` [Compound 1358, 5-tert-butyl-2-[(2,6-dimethylphenyl)methyl]-N-(1H-indol-7-ylsulfonyl)pyrazole-3-carboxamide] reads “+++ (“+++” means <3 uM)”; that for `Cc1cccc(C)c1Oc1nc(-c2cc(F)cc(OCC(C)CO)c2)ccc1C(=O)NS(=O)(=O)c1cccc(N)n1` (stereo not shown) [Compound 1797, N-[(6-amino-2-pyridyl)sulfonyl]-2-(2,6-dimethylphenoxy)-6-[3-fluoro-5-(3-hydroxy-2-methyl-propoxy)phenyl]pyridine-3-carboxamide], “+++ (“+++” means <3 uM)”; that for `CCOc1cc(-c2ccc(C(=O)NS(=O)(=O)c3cccc(N)n3)c(N3C[C@@H](C)CC3(C)C)n2)cc(C)c1C` [Compound 1931, N-[(6-amino-2-pyridyl)sulfonyl]-6-(3-ethoxy-4,5-dimethyl-phenyl)-2-[(4S)-2,2,4-trimethylpyrrolidin-1-yl]pyridine-3-carboxamide], “+++ (“+++” means <3 uM)”. Consider `C[C@@H]1CN(c2ncc(F)cc2C(=O)NS(=O)(=O)c2cccc(N)n2)C(C)(C)C1` [Compound 1607, N-[(6-amino-2-pyridyl)sulfonyl]-5-fluoro-2-[(4S)-2,2,4-trimethylpyrrolidin-1-yl]pyridine-3-carboxamide], for which the EC30 result was “++ (“++” means between 3 uM and 10 uM)”. For the compound `CCOc1ccc(-c2ccc(C(=O)NS(=O)(=O)c3cccc(N)n3)c(Oc3c(C)cc(C)cc3C)n2)cn1` [Compound 1185, N-[(6-amino-2-pyridyl)sulfonyl]-6-(6-ethoxy-3-pyridyl)-2-(2,4,6-trimethylphenoxy)pyridine-3-carboxamide], the EC30 entry is listed as “+++ (“+++” means <3 uM)”.

With `CC(C)(C)c1ccc(C(=O)NS(=O)(=O)c2cccc(N)n2)c(N2CC3CC(C3)C2)n1` [Compound 1401, N-[(6-amino-2-pyridyl)sulfonyl]-2-(3-azabicyclo[3.1.1]heptan-3-yl)-6-tert-butyl-pyridine-3-carboxamide], the EC30 result is reported as “+++ (“+++” means <3 uM)”. For the compound `CC(C)Oc1ccc(-c2ccc(C(=O)NS(=O)(=O)c3cccc(N)n3)c(N3CCC(C)(C)CC3)n2)cn1` [Compound 1134, N-[(6-amino-2-pyridyl)sulfonyl]-2-(4,4-dimethyl-1-piperidyl)-6-(6-isopropoxy-3-pyridyl)pyridine-3-carboxamide], the EC30 entry is reported as “+++ (“+++” means <3 uM)”. The result for `CC(C)COc1cc(F)cc(-c2ccc(C(=O)NS(=O)(=O)N3CCC(F)(F)C3)c(N3C[C@@H](C)CC3(C)C)n2)c1` [Compound 1956, N-(3,3-difluoropyrrolidin-1-yl)sulfonyl-6-(3-fluoro-5-isobutoxy-phenyl)-2-[(4S)-2,2,4-trimethylpyrrolidin-1-yl]pyridine-3-carboxamide] reads “+++ (“+++” means <3 uM)”; that for `C=C(C)c1ccc(C(=O)NS(=O)(=O)c2cccc(N)n2)c(N2C[C@@H](C)CC2(C)C)n1` [Compound 1423, N-[(6-amino-2-pyridyl)sulfonyl]-6-isopropenyl-2-[(4S)-2,2,4-trimethylpyrrolidin-1-yl]pyridine-3-carboxamide], “+++ (“+++” means <3 uM)”; that for `Cc1ccc(-c2ccc(C(=O)NS(=O)(=O)N3CC[C@H](N)C3)c(N3C[C@@H](C)CC3(C)C)n2)c(F)c1` [Compound 1967, N-[(3S)-3-aminopyrrolidin-1-yl]sulfonyl-6-(2-fluoro-4-methyl-phenyl)-2-[(4S)-2,2,4-trimethylpyrrolidin-1-yl]pyridine-3-carboxamide], “++ (“++” means between 3 uM and 10 uM)”. For `Cc1ccc(-c2nc(-c3cc(F)cc(OC(C)C)c3)ccc2C(=O)NS(=O)(=O)c2ccn[nH]2)cc1` [Compound 849, 6-(3-fluoro-5-isopropoxy-phenyl)-2-(p-tolyl)-N-(1H-pyrazol-5-ylsulfonyl)pyridine-3-carboxamide], the EC30 entry is listed as “+ (“+” means greater than 10 uM)”.

Turning to `CC(C)COc1ccc(F)c(-c2ccc(C(=O)NS(=O)(=O)c3cccc(N)n3)c(N3[C@H](C)CC[C@@H]3C)n2)c1` [Compound 807, N-[(6-amino-2-pyridyl)sulfonyl]-2-[(2S,5R)-2,5-dimethylpyrrolidin-1-yl]-6-(2-fluoro-5-isobutoxy-phenyl)pyridine-3-carboxamide], the EC30 entry is recorded as “+++ (“+++” means <3 uM)”.
